Data reported in ChEMBL document CHEMBL5303573, “Mapping human microbiome drug metabolism by gut bacteria and their genes” (Nature, 2019).

Columns and labels:
[1] = The drug is tested on Bifidobacterium ruminantium strain: fecal isolate for biotransformation. The drug concentrations were measured before and after a 12-h incubation by liquid-chromatography-coupled mass spectrometry (LC–MS); details: 2 µM
[2] = The drug is tested on Eggerthella lenta strain: ATCC25559 for biotransformation. The drug concentrations were measured before and after a 12-h incubation by liquid-chromatography-coupled mass spectrometry (LC–MS); details: 2 µM
[3] = The drug is tested on Bacteroides cellulosilyticus strain: DSM14838 for biotransformation. The drug concentrations were measured before and after a 12-h incubation by liquid-chromatography-coupled mass spectrometry (LC–MS); details: 2 µM
[4] = The drug is tested on Bacteroides ovatus strain: ATCC8483 for biotransformation. The drug concentrations were measured before and after a 12-h incubation by liquid-chromatography-coupled mass spectrometry (LC–MS); details: 2 µM
[5] = The drug is tested on Bacteroides pectinophilus strain: ATCC43243 for biotransformation. The drug concentrations were measured before and after a 12-h incubation by liquid-chromatography-coupled mass spectrometry (LC–MS); details: 2 µM
[6] = The drug is tested on Bacteroides vulgatus strain: ATCC8482 for biotransformation. The drug concentrations were measured before and after a 12-h incubation by liquid-chromatography-coupled mass spectrometry (LC–MS); details: phocaeicola vulgatus, 2 µM
[7] = The drug is tested on Blautia hansenii strain: DSM20583 for biotransformation. The drug concentrations were measured before and after a 12-h incubation by liquid-chromatography-coupled mass spectrometry (LC–MS); details: 2 µM
[8] = The drug is tested on Clostridium sp. strain: fecal isolate for biotransformation. The drug concentrations were measured before and after a 12-h incubation by liquid-chromatography-coupled mass spectrometry (LC–MS); details: 2 µM
[9] = The drug is tested on Clostridium symbiosum strain: ATCC14940 for biotransformation. The drug concentrations were measured before and after a 12-h incubation by liquid-chromatography-coupled mass spectrometry (LC–MS); details: 2 µM
[10] = The drug is tested on Ruminococcus gnavus strain: ATCC29149 for biotransformation. The drug concentrations were measured before and after a 12-h incubation by liquid-chromatography-coupled mass spectrometry (LC–MS); details: mediterraneibacter gnavus, 2 µM
[11] = The drug is tested on Ruminococcus torques strain: ATCC27756 for biotransformation. The drug concentrations were measured before and after a 12-h incubation by liquid-chromatography-coupled mass spectrometry (LC–MS); format: ADME; set-up: dose 2 uM, timepoint 0 vs 12 hours; details: 2 µM
[12] = The drug is tested on Edwardsiella tarda strain: ATCC23685 for biotransformation. The drug concentrations were measured before and after a 12-h incubation by liquid-chromatography-coupled mass spectrometry (LC–MS); details: 2 µM
[13] = The drug is tested on Enterobacter cancerogenus strain: ATCC35316 for biotransformation. The drug concentrations were measured before and after a 12-h incubation by liquid-chromatography-coupled mass spectrometry (LC–MS); details: 2 µM
[14] = bacteroides fragilis, 12 h, 2 µM
Description: The drug is tested on Bacteroides fragilis strain: DS-208 for biotransformation. The drug concentrations were measured before and after a 12-h incubation by liquid-chromatography-coupled mass spectrometry (LC–MS)

[15] = bacteroides stercoris, 12 h, 2 µM
Description: The drug is tested on Bacteroides stercoris strain: ATCC43183 for biotransformation. The drug concentrations were measured before and after a 12-h incubation by liquid-chromatography-coupled mass spectrometry (LC–MS)

[16] = bacteroides thetaiotaomicron, 12 h, 2 µM
Description: The drug is tested on Bacteroides thetaiotaomicron strain: 7330 for biotransformation. The drug concentrations were measured before and after a 12-h incubation by liquid-chromatography-coupled mass spectrometry (LC–MS)

[17] = segatella copri, 12 h, 2 µM
Description: The drug is tested on Prevotella copri strain: DSM18205 for biotransformation. The drug concentrations were measured before and after a 12-h incubation by liquid-chromatography-coupled mass spectrometry (LC–MS)

[18] = anaerostipes sp., 12 h, 2 µM
Description: The drug is tested on Anaerostipes sp. strain: fecal isolate for biotransformation. The drug concentrations were measured before and after a 12-h incubation by liquid-chromatography-coupled mass spectrometry (LC–MS)

[19] = enterocloster bolteae, 12 h, 2 µM
Description: The drug is tested on Clostridium bolteae strain: ATCCBAA-613 for biotransformation. The drug concentrations were measured before and after a 12-h incubation by liquid-chromatography-coupled mass spectrometry (LC–MS)

[20] = roseburia intestinalis, 12 h, 2 µM
Description: The drug is tested on Roseburia intestinalis strain: L1-82 for biotransformation. The drug concentrations were measured before and after a 12-h incubation by liquid-chromatography-coupled mass spectrometry (LC–MS)

| SMILES | Bacterial Biotransformation [1] | Bacterial Biotransformation [2] | Bacterial Biotransformation [3] | Bacterial Biotransformation [4] | Bacterial Biotransformation [5] | Bacterial Biotransformation [6] | Bacterial Biotransformation [7] | Bacterial Biotransformation [8] | Bacterial Biotransformation [9] | Bacterial Biotransformation [10] | Bacterial Biotransformation [11] | Bacterial Biotransformation [12] | Bacterial Biotransformation [13] | Bacterial Biotransformation [14] | Bacterial Biotransformation [15] | Bacterial Biotransformation [16] | Bacterial Biotransformation [17] | Bacterial Biotransformation [18] | Bacterial Biotransformation [19] | Bacterial Biotransformation [20] |
| --- | --- | --- | --- | --- | --- | --- | --- | --- | --- | --- | --- | --- | --- | --- | --- | --- | --- | --- | --- | --- |
| OC(CCN1CCCCC1)(c1ccccc1)C1CC2C=CC1C2 (configuration not stated) [BIPERIDEN] | Compound NOT metabolized | Compound NOT metabolized | Compound NOT metabolized | Compound NOT metabolized | Compound NOT metabolized | Compound metabolized | Compound NOT metabolized | Compound NOT metabolized | Compound NOT metabolized | Compound NOT metabolized | Compound NOT metabolized | Compound NOT metabolized | Compound NOT metabolized | Compound NOT metabolized | Compound NOT metabolized | Compound NOT metabolized | Compound NOT metabolized | Compound NOT metabolized | Compound NOT metabolized | Compound NOT metabolized |
| CC[C@@H](CO)NC(=O)[C@@H]1C=C2c3cccc4c3c(cn4C)C[C@H]2N(C)C1.O=C(O)/C=C\C(=O)O [METHYSERGIDE MALEATE] | Compound metabolized | Compound metabolized | Compound metabolized | Compound metabolized | Compound metabolized | Compound metabolized | Compound metabolized | Compound metabolized | Compound metabolized | Compound metabolized | Compound metabolized | Compound metabolized | Compound metabolized | Compound metabolized | Compound metabolized | Compound metabolized | Compound metabolized | Compound metabolized | Compound metabolized | Compound metabolized |
| CC(C)(Oc1ccc(CCNC(=O)c2ccc(Cl)cc2)cc1)C(=O)O [BEZAFIBRATE] | Compound metabolized | Compound metabolized | Compound metabolized | Compound metabolized | Compound metabolized | Compound metabolized | Compound NOT metabolized | Compound metabolized | Compound metabolized | Compound NOT metabolized | Compound metabolized | Compound metabolized | Compound metabolized | Compound metabolized | Compound metabolized | Compound metabolized | Compound metabolized | Compound metabolized | Compound metabolized | Compound metabolized |
| CC(C)C[C@H]1C(=O)N2CCC[C@H]2[C@]2(O)O[C@](NC(=O)[C@@H]3C=C4c5cccc6[nH]c(Br)c(c56)C[C@H]4N(C)C3)(C(C)C)C(=O)N12.CS(=O)(=O)O [BROMOCRIPTINE MESYLATE] | Compound metabolized | Compound metabolized | Compound metabolized | Compound metabolized | Compound metabolized | Compound metabolized | Compound metabolized | Compound metabolized | Compound metabolized | Compound metabolized | Compound metabolized | Compound metabolized | Compound metabolized | Compound metabolized | Compound metabolized | Compound metabolized | Compound metabolized | Compound metabolized | Compound metabolized | Compound metabolized |
| CNC(=C[N+](=O)[O-])NCCSCc1csc(CN(C)C)n1 [NIZATIDINE] | Compound metabolized | Compound NOT metabolized | Compound metabolized | Compound NOT metabolized | Compound metabolized | Compound metabolized | Compound metabolized | Compound metabolized | Compound metabolized | Compound metabolized | Compound metabolized | Compound metabolized | Compound metabolized | Compound metabolized | Compound NOT metabolized | Compound metabolized | Compound metabolized | Compound metabolized | Compound metabolized | Compound NOT metabolized |
| CCS(=O)(=O)CCn1c([N+](=O)[O-])cnc1C [TINIDAZOLE] | Compound metabolized | Compound metabolized | Compound metabolized | Compound metabolized | Compound NOT metabolized | Compound metabolized | Compound metabolized | Compound metabolized | Compound metabolized | Compound metabolized | Compound metabolized | – | Compound NOT metabolized | Compound metabolized | Compound metabolized | Compound metabolized | Compound metabolized | Compound metabolized | Compound metabolized | Compound metabolized |
| CC(C(=O)O)c1ccc2c(c1)Cc1cccnc1O2 (configuration not stated) [PRANOPROFEN] | Compound metabolized | Compound NOT metabolized | Compound metabolized | Compound metabolized | Compound metabolized | Compound metabolized | Compound metabolized | Compound metabolized | Compound metabolized | Compound NOT metabolized | – | Compound metabolized | Compound NOT metabolized | Compound metabolized | Compound metabolized | Compound metabolized | Compound metabolized | Compound NOT metabolized | Compound metabolized | Compound NOT metabolized |
| CNCCC(Oc1ccc(C(F)(F)F)cc1)c1ccccc1 (configuration not stated) [FLUOXETINE] | Compound metabolized | Compound NOT metabolized | Compound NOT metabolized | Compound metabolized | Compound metabolized | Compound metabolized | Compound metabolized | Compound metabolized | – | Compound metabolized | Compound NOT metabolized | Compound NOT metabolized | Compound metabolized | Compound metabolized | Compound metabolized | Compound metabolized | Compound metabolized | Compound metabolized | Compound metabolized | Compound metabolized |
